{"source": "patent US11058661B2", "about": "“Compositions and methods for lowering triglycerides in a subject on concomitant statin therapy and having hsCRP levels of at least about 2 mg/L” (priority 2018, dated 2021)", "key": {"[1]": {"tested_on": "statin-treated patients with fasting TG ≥200 and <500 mg/dL", "assay": "ANCHOR study, entire population: fasting TG", "type": "in vivo, human", "settings": "4 g/day", "description": "A multi-center, placebo-controlled, randomized, double-blind, 12-week study is performed to evaluate the efficacy and safety of >96% E-EPA in patients with fasting triglyceride levels ≥200 mg/dl and <500 mg/dl despite statin therapy (the mean of two qualifying entry values needs to be ≥185 mg/dl and at least one of the values needs to be ≥200 mg/dl). The primary objective of the study is to determine the efficacy of >96% E-EPA 2 g daily and 4 g daily, compared to placebo, in lowering fasting TG levels in patients with high risk for cardiovascular disease and with fasting TG levels ≥200 mg/dL and <500 mg/dL, despite treatment to LDL-C goal on statin therapy.\nThe population for this study is men and women >18 years of age with a body mass index ≤45 kg/m^2 with fasting TG levels greater than or equal to 200 mg/dl and less than 500 mg/dl and on a stable does of statin therapy (with or without ezetimibe). The statin must be atorvastatin, rosuvastatin or simvastatin. The dose of statin must be stable for ≥4 weeks prior to the LDL-C/TG baseline qualifying measurement for randomization. The statin dose will be optimal such that the patients are at their LDL-C goal at the LDL-C/TG baseline qualifying measurements. The same statin at the same dose will be continued until the study ends. […]"}, "[2]": {"tested_on": "patients with baseline hsCRP ≥2.0 mg/L (safety population)", "assay": "ANCHOR post-hoc subgroup: treatment-emergent adverse events", "type": "in vivo, human", "source_text": "The evaluation of safety included monitoring of treatment-emergent adverse events (TEAEs), defined as any AEs that began after the first dose of study medication or that worsened in severity during the double-blind treatment period. TEAEs reported herein included total TEAEs and those occurring in 3% […] of patients in any treatment group of the overall ANCHOR study population (i.e., nausea, diarrhea, nasopharyngitis, and arthralgia). The median difference in percent change from baseline between 4 g per day EPA-E and placebo groups for the primary efficacy variable and additional assessments were estimated with the Hodges-Lehmann method (P values from the Wilcoxon rank-sum test for treatment comparisons) where departures from normality were observed; for normally distributed parameters, an ANCOVA model was used with least square means (LS) and standard error (SE). Missing values were imputed using the last-observation-carried-forward method. For all post hoc analyses, the alpha level for statistical significance was 0.05. Safety analyses were based on the safety population (all randomized patients who received at least one dose of the study drug)."}}, "data": [{"smiles": "CC/C=C\\C/C=C\\C/C=C\\C/C=C\\C/C=C\\CCCC(=O)OCC", "note": "[Icosapent Ethyl, ethyl eicosapentaenoate]", "values": [{"measurement": "reduction of median TG from baseline compared with placebo", "setting": "[1]", "result": 21.5, "unit": "%"}, {"measurement": "patients with arthralgia", "setting": "[2]; 4 g per day", "result": 2.3, "unit": "%"}, {"measurement": "patients with diarrhea", "setting": "[2]; 4 g per day", "result": 3.8, "unit": "%"}, {"measurement": "patients with nasopharyngitis", "setting": "[2]; 4 g per day", "result": 0.8, "unit": "%"}, {"measurement": "patients with nausea", "setting": "[2]; 4 g per day", "result": 2.3, "unit": "%"}, {"measurement": "patients with TEAEs (irrespective of causality)", "setting": "[2]; 4 g per day, 60 of 131", "result": 45.8, "unit": "%"}, {"measurement": "patients discontinued due to an AE", "setting": "[2]; 4 g per day, subarachnoid hemorrhage, ruptured cerebral aneurysm, brain edema, not considered related", "result": "One"}, {"measurement": "Patients With TEAEs: Any TEAE", "setting": "[2]; 4 g/day, n = 131", "result": "60 (45.8) n (%)"}, {"measurement": "Patients With TEAEs: Arthralgia", "setting": "[2]; 4 g/day, n = 131", "result": "3 (2.3) n (%)"}, {"measurement": "Patients With TEAEs: Diarrhea", "setting": "[2]; 4 g/day, n = 131", "result": "5 (3.8) n (%)"}, {"measurement": "Patients With TEAEs: Nasopharyngitis", "setting": "[2]; 4 g/day, n = 131", "result": "1 (0.8) n (%)"}, {"measurement": "Patients With TEAEs: Nausea", "setting": "[2]; 4 g/day, n = 131", "result": "3 (2.3) n (%)"}]}]}
